According to ChEMBL document CHEMBL5579888, “A Comparative Study on the DNA Interactions and Biological Activities of Benzophenanthridine and Protoberberine Alkaloids” (J Nat Prod, 2024):
Activity calls are given as the source filed them. The calls are words filed in the database; no cut-off is given here.

How the values were obtained:
dsDNA [1] = test: Binding affinity to double stranded DNA ssab (unknown origin) at 20 uM by UV-Visible absorption spectroscopic analysis; type: nucleic-acid assay
Quadruplex DNA [2] = test: Binding affinity to human G4-quadruplex 22AG DNA 5'- AGGGTTAGGGTTAGGGTTAGGG -3' at 20 uM by UV-Visible absorption spectroscopic analysis; type: nucleic-acid assay
Quadruplex DNA [3] = test: Binding affinity to human G4-quadruplex Oxy28 DNA 5'- GGGGTTTTGGGGTTTTGGGGTTTTGGGG -3' at 20 uM by UV-Visible absorption spectroscopic analysis; type: nucleic-acid assay
Quadruplex DNA [4] = test: Binding affinity to human G4-quadruplex Pu27 DNA 5'- TGGGGAGGGTGGGGAGGGTGGGGAAGG-3' at 20 uM by UV-Visible absorption spectroscopic analysis; type: nucleic-acid assay
Quadruplex DNA [5] = test: Binding affinity to human G4-quadruplex Bcl2 DNA 5'- CGGGCGCGGGAGGAAGGGGGCGGGAGC-3' at 20 uM by UV-Visible absorption spectroscopic analysis; type: nucleic-acid assay
Quadruplex DNA [6] = test: Binding affinity to human G4-quadruplex KRAS DNA 5'- AGGGCGGTGTGGGAAGAGGGAAGAGGGGGAGG-3' at 20 uM by UV-Visible absorption spectroscopic analysis; type: nucleic-acid assay
Quadruplex DNA [7] = test: Binding affinity to human G4-quadruplex VEGF DNA 5'- GGGCGGGCCGGGGGCGGG-3' at 20 uM by UV-Visible absorption spectroscopic analysis; type: nucleic-acid assay
Quadruplex DNA [8] = test: Binding affinity to human G4-quadruplex c-kit2 DNA 5'- CGGGCGGGCGCGAGGGAGGGT-3' at 20 uM by UV-Visible absorption spectroscopic analysis; type: nucleic-acid assay
Quadruplex DNA [9] = test: Binding affinity to human G4-quadruplex Oxy28 DNA 5'- GGGGTTTTGGGGTTTTGGGGTTTTGGGG -3' at 10 uM by CD spectra analysis; type: nucleic-acid assay
Quadruplex DNA [10] = test: Binding affinity to human G4-quadruplex KRAS DNA 5'- AGGGCGGTGTGGGAAGAGGGAAGAGGGGGAGG-3' at 10 uM by CD spectra analysis; type: nucleic-acid assay
Salmon testes DNA = test: Displacement of Hoechst 33342 from salmon sperm DNA incubated for 0.5 hrs by SpectraMax M2 microplate reader analysis; type: nucleic-acid assay, Salmo salar
Calf thymus DNA = test: Displacement of Hoechst 33342 from calf thymus DNA incubated for 0.5 hrs by SpectraMax M2 microplate reader analysis; type: nucleic-acid assay, Bos taurus
dsDNA [11] = test: Displacement of Hoechst 33342 from double stranded DNA ssab (unknown origin) incubated for 0.5 hrs by SpectraMax M2 microplate reader analysis; type: nucleic-acid assay
Quadruplex DNA [12] = test: Displacement of ThT from human G4-quadruplex 22AG DNA 5'- AGGGTTAGGGTTAGGGTTAGGG -3' incubated for 0.5 hrs by SpectraMax M2 microplate reader analysis; type: nucleic-acid assay
Quadruplex DNA [13] = test: Displacement of ThT from human G4-quadruplex Oxy28 DNA 5'- GGGGTTTTGGGGTTTTGGGGTTTTGGGG -3' incubated for 0.5 hrs by SpectraMax M2 microplate reader analysis; type: nucleic-acid assay
Quadruplex DNA [14] = test: Displacement of ThT from human G4-quadruplex Pu27 DNA 5'- TGGGGAGGGTGGGGAGGGTGGGGAAGG-3' incubated for 0.5 hrs by SpectraMax M2 microplate reader analysis; type: nucleic-acid assay
Quadruplex DNA [15] = test: Displacement of ThT from human G4-quadruplex KRAS DNA 5'- AGGGCGGTGTGGGAAGAGGGAAGAGGGGGAGG-3' incubated for 0.5 hrs by SpectraMax M2 microplate reader analysis; type: nucleic-acid assay
Quadruplex DNA [16] = test: Displacement of ThT from human G4-quadruplex VEGF DNA 5'- GGGCGGGCCGGGGGCGGG-3' incubated for 0.5 hrs by SpectraMax M2 microplate reader analysis; type: nucleic-acid assay
Quadruplex DNA [17] = test: Displacement of ThT from human G4-quadruplex c-kit2 DNA 5'- CGGGCGGGCGCGAGGGAGGGT-3' incubated for 0.5 hrs by SpectraMax M2 microplate reader analysis; type: nucleic-acid assay
A-375 [18] = test: Inhibition of DNA synthesis in human A-375 cells at 5 uM incubated for 24 hrs by Edu incorporation based flow cytometry analysis; type: functional, cell-based
A-375 [19] = test: Inhibition of RNA synthesis in human A-375 cells at 5 uM incubated for 24 hrs by EU incorporation based flow cytometry analysis; type: functional, cell-based
A-375 [20] = test: Induction of cell cycle arrest in human A-375 cells assessed assessed as cell accumulation at G0/G1 phase at 5 uM incubated for 24 hrs by propidium iodide staining based flow cytometry (reference value: 54.25 %); type: functional
A-375 [21] = test: Induction of cell cycle arrest in human A-375 cells assessed assessed as cell accumulation at S phase at 5 uM incubated for 24 hrs by propidium iodide staining based flow cytometry (reference value: 30.05 %); type: functional
A-375 [22] = test: Induction of cell cycle arrest in human A-375 cells assessed assessed as cell accumulation at G2/M phase at 5 uM incubated for 24 hrs by propidium iodide staining based flow cytometry (reference value: 15.70 %); type: functional
A-375 [23] = test: Induction of apoptosis in human A-375 cells assessed assessed as viable cells at 5 uM incubated for 24 hrs by Annexin V-Elab Fluor 647/propidium iodide staining based flow cytometry (reference value: 91.1 %); type: functional; settings: read-out: Activity
A-375 [24] = test: Induction of apoptosis in human A-375 cells assessed assessed as early apoptotic cells at 5 uM incubated for 24 hrs by Annexin V-Elab Fluor 647/propidium iodide staining based flow cytometry (reference value: 1.14 %); type: functional
A-375 [25] = test: Induction of apoptosis in human A-375 cells assessed assessed as late apoptotic cells at 5 uM incubated for 24 hrs by Annexin V-Elab Fluor 647/propidium iodide staining based flow cytometry (reference value: 6.31 %); type: functional
A-375 [26] = test: Induction of apoptosis in human A-375 cells assessed assessed as necrotic cells at 5 uM incubated for 24 hrs by Annexin V-Elab Fluor 647/propidium iodide staining based flow cytometry (reference value: 1.45 %); type: functional
A-375 [27] = test: Induction of DNA damage in human A-375 cells assessed as appearance of long DNA tails at 5 uM incubated for 24 hrs by comet assay; type: functional, cell-based
Quadruplex DNA [28] = test: Displacement of ThT from human G4-quadruplex Bcl2 DNA 5'- CGGGCGCGGGAGGAAGGGGGCGGGAGC-3' incubated for 0.5 hrs by SpectraMax M2 microplate reader analysis; type: nucleic-acid assay

COc1cc2c[n+](C)c3c4cc5c(cc4ccc3c2cc1OC)OCO5 [NITIDINE]
Activity (dsDNA [1]): Active
Activity (Quadruplex DNA [2]): Active
Activity (Quadruplex DNA [3]): Active
Activity (Quadruplex DNA [4]): Active
Activity (Quadruplex DNA [5]): Active
Activity (Quadruplex DNA [6]): Active
Activity (Quadruplex DNA [7]): Active
Activity (Quadruplex DNA [8]): Active
Activity (Quadruplex DNA [9]): inactive
Activity (Quadruplex DNA [10]): inactive
DC50 (Salmon testes DNA): 10800 nM
DC50 (Calf thymus DNA): 14400 nM
DC50 (dsDNA [11]): 2970 nM
DC50 (Quadruplex DNA [12]): 15500 nM
DC50 (Quadruplex DNA [13]): 1980 nM
DC50 (Quadruplex DNA [14]): 990 nM
DC50 (Quadruplex DNA [15]): 9080 nM
DC50 (Quadruplex DNA [16]): 590 nM
DC50 (Quadruplex DNA [17]): 1050 nM
inhibition (A-375 [18]): Active
inhibition (A-375 [19]): Active
Activity (A-375 [20]): 40.5%
Activity (A-375 [21]): 30.21%
Activity (A-375 [22]): 29.3%
viability at 5 µM (A-375 [23]): 30.8%
Activity (A-375 [24]): 2.03%
Activity (A-375 [25]): 60.4%
Activity (A-375 [26]): 6.7%
Activity (A-375 [27]): Active
Kd (Quadruplex DNA [28]): 1520 nM
